Measurements: paper PMC7070320, “Unsymmetrically Substituted Dibenzo[b,f][1,5]-diazocine-6,12(5H,11H)dione—A Convenient Scaffold for Bioactive Molecule Design” (Molecules, 2020)
Like-named read-outs stand apart in the source and are kept apart here.

How the values were obtained:
[1] = system: two normal (HEK293, EUFA30) and two cancerous (HeLa, U87) cell lines; test: Cytotoxicity assay (Alamar Blue), statements over all four cell lines; assay type: cell-based, human; details: concentrations tested: 1–200 µM
Experimental: (§1) Following cell lines: HeLa, U87, HEK293, EUFA30 were cultured in DMEM medium (Life Technology, Carlsbad, CA, USA) with 10% fetal bovine serum (Thermo Fisher Scientific, Waltham, MA, USA) and 0.1% antibiotics (penicillin, streptomycin, Life Technology, Carlsbad, CA, USA). Cells were grown in atmosphere of 5 and 95% CO2 and air, respectively, at 37 °C.
(§2) Exponentially growing cells at the density of 2 × 10^3 cells/well were seeded onto a 96-well plate, cultured for 18 h, and treated with newly synthesized compounds at concentrations 1–200 µM, or with DMSO as a control, for 24 or 48 h. Alamar Blue (Thermo Fisher Scientific, Waltham, MA, USA) was added accordingly to manufacturer protocol. After 4 h, light emission at 590 nm was measured with excitation at 560 nm using a scanning multiwell spectrophotometer (DTX 880, Beckman Coulter, Brea, CA, USA). The experiments were repeated at least three times with three replicates for each inhibitor concentration. After background subtraction, inhibition rates, IC50, were calculated as the component concentration inhibiting cell growth by 50%. All the calculations were performed using Origin 9.0 software.

HeLa [2] = test: Cytotoxicity assay (Alamar Blue), HeLa cells; assay type: cell-based; details: Homo sapiens, read-out: IC50 based on the survival of cells
Experimental: as §1, §2

U87 [3] = test: Flow cytometry apoptosis detection (Annexin V-FITC / propidium iodide), U87; assay type: cell-based, human; details: U87, 200 µM; for cells in late apoptosis: control 1.6%; for cells in necrosis: control 8.6%; for cells in necrotic phase: 48 h, control 17%
Experimental: as §1
(§3) The apoptosis detection kit (Annexin V-FITC BD Biosciences, Franklin Lakes, NJ, USA) was used to detect apoptosis by flow cytometry. Cells were seeded in 6-well plates at concentration of 5 × 10^5 cells/well, cultured for 18 h, and tested compound was applied for indicated time. Afterwards, cells were washed with PBS, resuspended in binding buffer at concentration of 2 × 10^6 cells/mL. The anti-Annexin V FITC-conjugated antibody and propidium iodide were added to 100 µl aliquots. Then, mixtures were incubated for 15 min at room temperature, supplemented with binding buffer to 500 µl and processed by BD FACSCalibur (BD Biosciences, Franklin Lakes, NJ, USA). Data were analyzed in Flowing Software version 2.5.1 (Flowing Software, http://www.uskonaskel.fi/flowingsoftware).

HEK293 [4] = test: Flow cytometry apoptosis detection (Annexin V-FITC / propidium iodide), HEK293; assay type: cell-based, human; details: HEK293, 200 µM; for cells in necrosis: control cells 20%; for cells in early apoptosis: control cells 1.3%
Experimental: as §1, §3

HEK293 [5] = test: Cytotoxicity assay (Alamar Blue), HEK293 cells; assay type: cell-based, human; details: read-out: IC50 based on the survival of cells
Experimental: as §1, §2

HeLa [6] = test: Flow cytometry apoptosis detection (Annexin V-FITC / propidium iodide), HeLa; assay type: cell-based, human; details: 200 µM
Experimental: as §1, §3

U87 [7] = test: Cytotoxicity assay (Alamar Blue), U87 cells; assay type: cell-based, human; details: read-out: IC50 based on the survival of cells
Experimental: as §1, §2

EUFA30 = test: Cytotoxicity assay (Alamar Blue), EUFA30 cells; assay type: cell-based; details: Homo sapiens, read-out: IC50 based on the survival of cells
Experimental: as §1, §2

[8] = Homo sapiens, HEK293, 48 h, HEK293, 48 h of treatment
[9] = Homo sapiens, U-87 MG, 24 h, U87, 24 h of treatment
[10] = Homo sapiens, U-87 MG, 48 h, U87, 48 h of treatment
[11] = Homo sapiens, HEK293, 24 h, HEK293, 24 h of treatment

## COc1cc2c(cc1OC)C(=O)Nc1ccc(Br)cc1C(=O)N2 [Compound 10c, 8-Bromo-2,3-dimethoxydibenzo[b,f][1,5]diazocine-6,12(5H,11H)-dione]
other
  melting point: 195 to 196 °C
[1]
  cytotoxic effect (in words): no cytotoxic effect in the concentration range tested

## O=C1Nc2ccccc2C(=O)N(Cc2ccc(Br)cc2)c2ccccc21 [Compound 10j, 5-(4-Bromobenzyl)dibenzo[b,f][1,5]diazocine-6,12(5H,11H)-dione]
other
  melting point: 222 to 223 °C
[1]
  cytotoxic effect (in words): showed a cytotoxic effect while maintaining the selectivity of action
HeLa [2]; 24 h of treatment
  IC50: 138 ± 14.1 µM
HeLa [2]; 48 h of treatment
  IC50: 203 ± 4 µM
U87 [3]; 24 h
  cells in late apoptosis: 5.2%
  cells in necrosis: 17.8%
U87 [3]
  cells in necrotic phase: 28.1%
HEK293 [4]; 24 h, control cells 0.4%
  cells in late apoptosis: 10%
HEK293 [4]; 24 h
  cells in necrosis: 22%
HEK293 [4]; 48 h, control cells 0.5%
  cells in late apoptosis: 4.4%
HEK293 [4]; 48 h
  cells in early apoptosis: 4%
HEK293 [5]; [8]
  IC50: 192 ± 12.2 µM

## CN1C(=O)c2cc(Br)ccc2N(Cc2cccc3ccccc23)C(=O)c2ccccc21 [Compound 10k, 2-Bromo-11-methyl-5-(naphthalen-1-ylmethyl)dibenzo[b,f][1,5]diazocine-6,12(5H,11H)-dione]
other
  melting point: 255 to 256 °C
HeLa [6]; 24 and 48 h
  changes in the apoptosis/necrosis phases in relation to control: did not observe any changes in the apoptosis/necrosis phases in relation to control
U87 [7]; [9]
  IC50: 75.4 ± 8.7 µM
U87 [7]; [10]
  IC50: 197 ± 9.4 µM
HeLa [2]; 24 h of treatment
  IC50: 75.3 ± 1.6 µM
HeLa [2]; 48 h of treatment
  IC50: 124 ± 5.4 µM
EUFA30; Eufa30, 24 h of treatment
  IC50: 87.6 ± 8.1 µM
EUFA30; Eufa30, 48 h of treatment
  IC50: 74.4 ± 6.7 µM
U87 [3]; 24 and 48 h
  changes in the apoptosis/necrosis phases in relation to control: did not observe any changes in the apoptosis/necrosis phases in relation to control
HEK293 [4]; 24 and 48 h
  changes in the apoptosis/necrosis phases in relation to control: did not observe any changes in the apoptosis/necrosis phases in relation to control
HEK293 [5]; [11]
  IC50: 119 ± 7.1 µM
HEK293 [5]; [8]
  IC50: 138 ± 12 µM

## CCOC(=O)CN1C(=O)c2ccccc2N(C)C(=O)c2ccccc21 [Compound 10n, ethyl 2-(11-methyl-6,12-dioxo-11,12-dihydrodibenzo[b,f][1,5]diazocin-5(6H)-yl)acetate]
other
  melting point: 125 to 126 °C

## O=C1Nc2ccccc2C(=O)N(Cc2ccccc2)c2ccccc21 [Compound 10i, 5-Benzyldibenzo[b,f][1,5]diazocine-6,12(5H,11H)-dione]
other
  melting point: 212 to 213 °C

## O=C1Nc2ccc(Cl)cc2C(=O)Nc2ccccc21 [Compound 10a, 2-Chlorodibenzo[b,f][1,5]diazocine-6,12(5H,11H)-dione]
other
  melting point: 275 to 276 °C
[1]
  cytotoxic effect (in words): no cytotoxic effect in the concentration range tested

## CN1C(=O)c2ccccc2NC(=O)c2ccccc21 [Compound 10d, 5-Methyldibenzo[b,f][1,5]diazocine-6,12(5H,11H)-dione]
other
  melting point: 258 to 259 °C

## CC(=O)N1C(=O)c2ccccc2N(C)C(=O)c2ccccc21 [Compound 10o, 5-acetyl-11-methyldibenzo[b,f][1,5]diazocine-6,12(5H,11H)-dione]
other
  melting point: 193 to 194 °C

## CN1C(=O)c2cc([N+](=O)[O-])ccc2NC(=O)c2ccccc21 [Compound 10f, 11-Methyl-2-nitrodibenzo[b,f][1,5]diazocine-6,12(5H,11H)-dione]
other
  melting point: 225 to 226 °C
[1]
  cytotoxic effect (in words): showed a cytotoxic effect while maintaining the selectivity of action
HeLa [2]; 24 h of treatment
  IC50: 206 ± 12.8 µM
HEK293 [4]; 24 h, control cells 0.4%
  cells in late apoptosis: 0.5%
HEK293 [4]; 24 h
  cells in necrosis: 39%
HEK293 [4]; 48 h, control cells 0.5%
  cells in late apoptosis: 3%
HEK293 [4]; 48 h
  cells in early apoptosis: 6.6%

## CN1C(=O)c2cc3ccccc3cc2NC(=O)c2cc(Cl)ccc21 [Compound 10h, 2-Chloro-5-methylbenzo[b]naphtho[2,3-f][1,5]diazocine-6,14(5H,13H)-dione]
other
  melting point: 270 to 271 °C
[1]
  cytotoxic effect (in words): showed a cytotoxic effect while maintaining the selectivity of action
U87 [7]; [9]
  IC50: 149 ± 9 µM
U87 [7]; [10]
  IC50: 182 ± 5.6 µM
HeLa [2]; 24 h of treatment
  IC50: 107 ± 10 µM
HeLa [2]; 48 h of treatment
  IC50: 108 ± 8.6 µM
EUFA30; Eufa30, 24 h of treatment
  IC50: 170 ± 21.1 µM
EUFA30; Eufa30, 48 h of treatment
  IC50: 200 ± 13.9 µM
U87 [3]; 24 h, control 1.2%
  cells in early apoptosis: 4.1%
U87 [3]; 24 h
  cells in late apoptosis: 6.9%
U87 [3]
  cells in necrotic phase: 36.2%
HEK293 [4]; 24 h, control cells 0.4%
  cells in late apoptosis: 3%
HEK293 [4]; 24 h
  cells in necrosis: 32%
HEK293 [4]; 48 h, control cells 0.5%
  cells in late apoptosis: 3.2%
HEK293 [4]; 48 h
  cells in early apoptosis: 3.8%
HEK293 [5]; [11]
  IC50: > 200 µM

## CN1C(=O)c2cc(Br)ccc2NC(=O)c2ccccc21 [Compound 10e, 2-Bromo-11-methyldibenzo[b,f][1,5]diazocine-6,12(5H,11H)-dione]
other
  melting point: 247 to 248 °C
HeLa [2]; 24 h of treatment
  IC50: > 200 µM

## O=C1Nc2ccc(Br)cc2C(=O)Nc2ccccc21 [Compound 10b, 2-Bromodibenzo[b,f][1,5]diazocine-6,12(5H,11H)-dione]
other
  melting point: 283 to 284 °C
[1]
  cytotoxic effect (in words): showed a cytotoxic effect while maintaining the selectivity of action
HeLa [2]; 24 h of treatment
  IC50: 97.3 ± 13.7 µM

## COc1cc2c(cc1OC)C(=O)N(C)c1ccccc1C(=O)N2 [Compound 10g, 2,3-Dimethoxy-11-methyldibenzo[b,f][1,5]diazocine-6,12(5H,11H)-dione]
other
  melting point: 271 to 272 °C

## O=C1Nc2nccnc2C(=O)Nc2ccc(Cl)cc21 [Compound 10m, 8-Chloropyrazino[3,2-c][1,5]benzodiazocine-6,12(5H,11H)-dione]
other
  melting point: 346 to 347 °C

## COc1cc2c(cc1OC)C(=S)Nc1ccc(Br)cc1C(=S)N2 [Compound 10p, 8-bromo-2,3-dimethoxydibenzo[b,f][1,5]diazocine-6,12(5H,11H)-dithione]
other
  melting point: 186 to 187 °C (dec.)
HeLa [6]; 24 h, non-treated control 21.1%
  percentage of necrotic cells: 34.5%
HeLa [6]; 48 h, control cells 22.1%
  percentage of necrotic cells: 53.4%
[1]
  cytotoxic effect (in words): showed a cytotoxic effect while maintaining the selectivity of action
U87 [7]; [9]
  IC50: 170 µM
U87 [7]; U87, 24 h of treatment
  IC50: 172 ± 10 µM
HeLa [2]; 24 h of treatment
  IC50: 115 ± 4.5 µM
HeLa [2]; 48 h of treatment
  IC50: 204 ± 6.5 µM
EUFA30; Eufa30, 24 h of treatment
  IC50: > 200 µM
EUFA30; Eufa30, 48 h of treatment
  IC50: 158 ± 9.6 µM
U87 [3]; 24 h
  cells in necrosis: 14%
U87 [3]
  cells in necrotic phase: 46.6%
HEK293 [5]; HEK293, 24 h of treatment
  IC50: 202 ± 7.9 µM
HEK293 [5]; [11]
  IC50: > 200 µM
HEK293 [5]; [8]
  IC50: 145 ± 8.5 µM
